US20250230193A1, “CYCLIC COMPOUND HAVING SELECTIVE KRAS INHIBITORY EFFECT ON HRAS AND NRAS” (CHUGAI SEIYAKU KABUSHIKI KAISHA, priority 2022, published 2025)
Where a SMILES comes first, the peptide text is derived from it. Bridges are numbered along the chain shown (N, C = ends). [ ]: non-standard residue; d: D form. The star is where a group is joined. hPhe(3-Cl-4-CF3) = N[C@@H](CCc1ccc(C(F)(F)F)c(Cl)c1)C(=O)O; NPrPhe(4-CF3) = CCCN[C@@H](Cc1ccc(C(F)(F)F)cc1)C(=O)O; NMeGly(cPent) = CN[C@H](C(=O)O)C1CCCC1; NMeD = CN[C@@H](CC(=O)O)C(=O)O; NMeL = CN[C@@H](CC(C)C)C(=O)O; N(Me)CH2CH2OMe = COCCN(C)*; Ac5c = NC1(C(=O)O)CCCC1; Sar = CNCC(=O)O

Experiments:
[1] = target: GDP-bound NRAS wild-type protein (Homo sapiens, UniProt P01111); test: Binding to NRAS by surface plasmon resonance (SPR), Single Cycle Kinetics; conditions: for NRAS/KRAS (ratio of KD value with respect to NRAS to KD value with respect to KRAS) / NRAS/KRAS (ratio of KD value for NRAS to KD value for KRAS): GDP-bound NRAS wild-type vs GDP-bound KRAS wild-type
[2] = target: GDP-bound HRAS wild-type protein (Homo sapiens, UniProt P01112); test: Binding to HRAS by surface plasmon resonance (SPR), Single Cycle Kinetics; conditions: for HRAS/KRAS (ratio of KD value with respect to HRAS to KD value with respect to KRAS) / HRAS/KRAS (ratio of KD value for HRAS to KD value for KRAS): GDP-bound HRAS wild-type vs GDP-bound KRAS wild-type
GDP-bound HRAS wild-type protein, sequence (P01112 whole entry): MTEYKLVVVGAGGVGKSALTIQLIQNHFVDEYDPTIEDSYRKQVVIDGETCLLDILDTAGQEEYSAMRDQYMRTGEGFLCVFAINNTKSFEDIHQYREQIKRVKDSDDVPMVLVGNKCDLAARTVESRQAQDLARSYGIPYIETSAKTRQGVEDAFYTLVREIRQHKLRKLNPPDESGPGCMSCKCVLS

GDP-bound NRAS wild-type protein, sequence (P01111 whole entry): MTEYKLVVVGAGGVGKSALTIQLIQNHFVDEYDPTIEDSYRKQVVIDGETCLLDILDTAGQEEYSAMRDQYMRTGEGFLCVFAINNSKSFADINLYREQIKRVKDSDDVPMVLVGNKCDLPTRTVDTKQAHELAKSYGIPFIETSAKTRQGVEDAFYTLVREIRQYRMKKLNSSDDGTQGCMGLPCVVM

CCO[C@@H]1C[C@H]2C(=O)NC3(CC(C)(C)C3)C(=O)N(C)[C@@H](C3CCCC3)C(=O)N(C)[C@H](C(=O)N(C)CC)CC(=O)N(C)[C@@H](CC(C)C)C(=O)N[C@@H]([C@@H](C)CC)C(=O)N(C)CC(=O)N(C)[C@H]3C/C=C\CCN(C3=O)[C@@H](Cc3ccc(C(F)F)cc3)C(=O)N(C)CC(=O)N[C@@H](CCc3ccc(C(F)(F)F)c(OC)c3)C(=O)N2C1 [PP2828]
NRAS/KRAS (ratio of KD value with respect to GDP-bound NRAS wild-type protein to KD value with respect to KRAS) ([1]; KD ratio NRAS/KRAS, class symbols): A (a compound having 10 or more and less than 20 is denoted as A)
HRAS/KRAS (ratio of KD value with respect to GDP-bound HRAS wild-type protein to KD value with respect to KRAS) ([2]; KD ratio HRAS/KRAS, class symbols): A (a compound having 10 or more and less than 20 is denoted as A)

CCCO[C@@H]1C[C@H]2C(=O)NC3(CCC3)C(=O)N(C)[C@@H](C3CCCC3)C(=O)N(C)[C@H](C(=O)N3CCOCC3)CC(=O)N(C)[C@@H](CC(C)C)C(=O)N[C@@H]([C@@H](C)CC)C(=O)N(C)CC(=O)N(C)[C@H]3CCCCN(C3=O)[C@@H](Cc3ccc(C(F)(F)F)cc3)C(=O)N(C)CC(=O)N[C@@H](CCc3cc(F)c(C(F)(F)F)c(F)c3)C(=O)N2C1 [PP1159]
NRAS/KRAS (ratio of KD value with respect to NRAS to KD value with respect to KRAS) ([1]; KD ratio, SPR): C (A compound having a KD ratio of 0.1 or more and less than 3 is denoted as C)
HRAS/KRAS (ratio of KD value with respect to HRAS to KD value with respect to KRAS) ([2]; KD ratio, SPR): B (a compound having 3 or more and less than 10 is denoted as B)

CCOC[C@H]1C(=O)N[C@@H]([C@@H](C)CC)C(=O)N2CCC[C@H]2C(=O)N(C)[C@H]2C/C=C\CCN(C2=O)[C@@H](Cc2ccc(C(F)(F)F)cc2)C(=O)N(C)CC(=O)N[C@@H](CCc2ccc(C(F)(F)F)c(OC)c2)C(=O)N2C[C@@H](C)C[C@H]2C(=O)N(C)C2(CCC2)C(=O)N(C)[C@@H](C2CCCC2)C(=O)N(C)[C@H](C(=O)N(C)C)CC(=O)N1C [PP2363]
NRAS/KRAS (ratio of KD value with respect to NRAS to KD value with respect to KRAS) ([1]; SPR): A (a compound having 10 or more and less than 20 is denoted as A)
HRAS/KRAS (ratio of KD value with respect to HRAS to KD value with respect to KRAS) ([2]; SPR): B (a compound having 3 or more and less than 10 is denoted as B)

CCO[C@@H]1C[C@H]2C(=O)NC3(CC(F)(F)C3)C(=O)N(C)[C@@H](C3CCCC3)C(=O)N(C)[C@H](C(=O)N(C)C)CC(=O)N(C)[C@@H](CC(C)C)C(=O)N[C@@H]([C@@H](C)CC)C(=O)N(C)CC(=O)N(C)[C@H]3C/C=C\CCN(C3=O)[C@@H](Cc3ccc(C(F)(F)F)cc3)C(=O)N(C)CC(=O)N[C@@H](CCc3cc(F)c(C(F)(F)F)c(F)c3)C(=O)N2C1 [PP1741]
NRAS/KRAS (ratio of KD value for NRAS to KD value for KRAS) ([1]; KD ratio, SPR): A (a compound having 10 or more and less than 20 is denoted as A)
HRAS/KRAS (ratio of KD value for HRAS to KD value for KRAS) ([2]; KD ratio, SPR): B (a compound having 3 or more and less than 10 is denoted as B)

CCCN1C(=O)CN(C)C(=O)CN(C)C(=O)[C@H]([C@@H](C)CC)NC(=O)[C@H](CC(C)C)N(C)C(=O)C[C@@H](C(=O)N(C)CCOC)N(C)C(=O)[C@H](C2CCCC2)N(C)C(=O)C2(CCCC2)NC(=O)[C@@H]2CCCN2C(=O)[C@H](CCc2ccc(C(F)(F)F)c(Cl)c2)NC(=O)CN(C)C(=O)[C@@H]1Cc1ccc(C(F)(F)F)cc1 [PP0391] ([NMeL]I[Sar][Sar][NPrPhe(4-CF3)][Sar][hPhe(3-Cl-4-CF3)]P[Ac5c][NMeGly(cPent)][NMeD]-{N(Me)CH2CH2OMe}; lactam N-11)
NRAS/KRAS (ratio of KD for GDP-bound NRAS wild-type to KD for KRAS) ([1]; KD ratio NRAS/KRAS, SPR): B (a compound having 3 or more and less than 10 is denoted as B)
HRAS/KRAS (ratio of KD for GDP-bound HRAS wild-type to KD for KRAS) ([2]; KD ratio HRAS/KRAS, SPR): B (a compound having 3 or more and less than 10 is denoted as B)

CCCC[C@H]1C(=O)N[C@@H]([C@@H](C)CC)C(=O)N(C)CC(=O)N(C)[C@H]2C/C=C\CCN(C2=O)[C@@H](Cc2ccc(C(F)(F)F)cc2)C(=O)N(C)CC(=O)N[C@@H](CCc2cc(F)c(C(F)(F)F)c(F)c2)C(=O)N2C[C@H](F)C[C@H]2C(=O)NC2(CC(C)(C)C2)C(=O)N(C)[C@@H](C2CCCC2)C(=O)N(C)[C@H](C(=O)N(C)C)CC(=O)N1C [PP1693]
NRAS/KRAS (ratio of KD value for NRAS to KD value for KRAS) ([1]; KD ratio, SPR): AA (a compound having 20 or more is denoted as AA)
HRAS/KRAS (ratio of KD value for HRAS to KD value for KRAS) ([2]; KD ratio, SPR): A (a compound having 10 or more and less than 20 is denoted as A)

CCC[C@H]1C(=O)N[C@@H]([C@@H](C)CC)C(=O)N2CC[C@H]2C(=O)N(C)[C@H]2C/C=C\CCN(C2=O)[C@@H](Cc2ccc(C(F)(F)F)cc2)C(=O)N(C)CC(=O)N[C@@H](CCc2cc(F)c(C(F)(F)F)c(F)c2)C(=O)N2C[C@H](OCC)C[C@H]2C(=O)NC2(CC(C)(C)C2)C(=O)N(C)[C@@H](C2CCCC2)C(=O)N(C)[C@H](C(=O)N(C)C)CC(=O)N1C [PP1925]
NRAS/KRAS (ratio of KD value for NRAS to KD value for KRAS) ([1]; KD ratio, SPR): A (a compound having 10 or more and less than 20 is denoted as A)
HRAS/KRAS (ratio of KD value for HRAS to KD value for KRAS) ([2]; KD ratio, SPR): A (a compound having 10 or more and less than 20 is denoted as A)
